Data on 15 molecules can be found in the Kinase Knowledgebase extract (Sharma et al. 2016).

Experiment [1] concerns EGFR (Human), P00533 [T790M/L858R]. The settings on record: h1975.
Experiment [2] relates to EGFR (human), P00533 [delE746-A750]. The settings on record: hcc827.
Sequence of EGFR (human), P00533 [delE746-A750] (P00533 whole entry, looked up, stated change not applied): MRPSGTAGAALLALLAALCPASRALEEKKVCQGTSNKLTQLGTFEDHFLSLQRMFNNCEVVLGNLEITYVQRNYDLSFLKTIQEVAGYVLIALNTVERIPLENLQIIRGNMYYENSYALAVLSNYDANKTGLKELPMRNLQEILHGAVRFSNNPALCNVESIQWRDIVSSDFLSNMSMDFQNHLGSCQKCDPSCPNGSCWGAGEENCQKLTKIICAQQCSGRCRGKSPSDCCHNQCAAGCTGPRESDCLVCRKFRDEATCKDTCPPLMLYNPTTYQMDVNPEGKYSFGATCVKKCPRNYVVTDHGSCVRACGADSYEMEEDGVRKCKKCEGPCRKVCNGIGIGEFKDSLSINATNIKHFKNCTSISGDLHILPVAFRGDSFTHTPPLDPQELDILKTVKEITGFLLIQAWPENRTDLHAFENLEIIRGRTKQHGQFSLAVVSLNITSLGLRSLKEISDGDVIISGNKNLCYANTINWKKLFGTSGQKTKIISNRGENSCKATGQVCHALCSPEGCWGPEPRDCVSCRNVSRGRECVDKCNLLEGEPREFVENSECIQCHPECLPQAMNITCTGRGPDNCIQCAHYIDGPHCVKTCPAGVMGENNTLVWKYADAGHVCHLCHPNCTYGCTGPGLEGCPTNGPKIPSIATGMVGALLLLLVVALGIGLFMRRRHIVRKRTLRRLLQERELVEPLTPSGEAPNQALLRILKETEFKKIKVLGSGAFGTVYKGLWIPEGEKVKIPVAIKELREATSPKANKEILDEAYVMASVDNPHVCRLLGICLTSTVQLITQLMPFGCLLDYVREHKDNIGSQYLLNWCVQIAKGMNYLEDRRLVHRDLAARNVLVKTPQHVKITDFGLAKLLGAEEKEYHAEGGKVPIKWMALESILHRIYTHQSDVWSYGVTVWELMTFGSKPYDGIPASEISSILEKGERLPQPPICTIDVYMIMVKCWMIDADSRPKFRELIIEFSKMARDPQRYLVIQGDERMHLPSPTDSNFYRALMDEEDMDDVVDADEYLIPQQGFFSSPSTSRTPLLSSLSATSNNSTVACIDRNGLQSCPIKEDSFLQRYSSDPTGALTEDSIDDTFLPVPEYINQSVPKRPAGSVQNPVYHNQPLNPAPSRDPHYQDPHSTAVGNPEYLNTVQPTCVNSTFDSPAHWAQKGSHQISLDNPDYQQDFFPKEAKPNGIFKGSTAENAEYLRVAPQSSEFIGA

Sequence of EGFR (Human), P00533 [T790M/L858R] (P00533 whole entry T790M/L858R, looked up): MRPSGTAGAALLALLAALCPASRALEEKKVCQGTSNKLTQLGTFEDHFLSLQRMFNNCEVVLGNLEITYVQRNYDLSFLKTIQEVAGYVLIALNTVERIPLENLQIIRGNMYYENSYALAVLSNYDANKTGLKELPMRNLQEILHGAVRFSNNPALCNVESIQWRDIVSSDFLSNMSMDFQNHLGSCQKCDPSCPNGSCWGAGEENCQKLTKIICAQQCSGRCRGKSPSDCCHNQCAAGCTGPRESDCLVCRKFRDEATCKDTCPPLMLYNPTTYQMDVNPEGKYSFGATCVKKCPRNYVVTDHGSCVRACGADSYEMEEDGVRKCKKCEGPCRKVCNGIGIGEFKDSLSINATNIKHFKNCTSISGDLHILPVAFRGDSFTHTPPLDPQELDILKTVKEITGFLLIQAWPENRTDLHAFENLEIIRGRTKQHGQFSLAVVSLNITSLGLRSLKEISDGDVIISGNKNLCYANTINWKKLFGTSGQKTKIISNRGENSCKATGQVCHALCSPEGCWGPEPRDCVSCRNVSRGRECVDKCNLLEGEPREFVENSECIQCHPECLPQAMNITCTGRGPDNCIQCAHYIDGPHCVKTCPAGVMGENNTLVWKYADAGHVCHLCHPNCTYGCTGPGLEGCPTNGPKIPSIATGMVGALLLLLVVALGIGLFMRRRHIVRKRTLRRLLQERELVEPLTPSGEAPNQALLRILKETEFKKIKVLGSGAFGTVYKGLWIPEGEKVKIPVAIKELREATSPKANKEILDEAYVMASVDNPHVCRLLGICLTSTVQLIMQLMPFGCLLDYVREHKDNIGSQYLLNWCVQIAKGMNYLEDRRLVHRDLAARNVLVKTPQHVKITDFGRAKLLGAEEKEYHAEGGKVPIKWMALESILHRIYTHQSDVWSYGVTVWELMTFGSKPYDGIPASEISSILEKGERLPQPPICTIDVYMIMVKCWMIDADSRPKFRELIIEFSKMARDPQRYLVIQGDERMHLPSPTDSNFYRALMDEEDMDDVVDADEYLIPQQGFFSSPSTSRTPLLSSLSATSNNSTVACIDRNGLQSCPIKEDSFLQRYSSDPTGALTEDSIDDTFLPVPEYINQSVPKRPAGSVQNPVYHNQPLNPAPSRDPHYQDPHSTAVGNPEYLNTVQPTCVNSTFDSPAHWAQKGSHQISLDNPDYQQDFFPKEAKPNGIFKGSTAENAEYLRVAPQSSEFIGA

Regarding `C=CC(=O)Nc1cccc(Nc2nc(Nc3ccccc3OC)ncc2Br)c1`, the 50% growth inhibitory concentration (GI50) in experiment [1] and in experiment [2] was 500 to 1000 nM throughout. Consider `C=CC(=O)Nc1cccc(Nc2nc(Nc3ccccc3OC)ncc2C(F)(F)F)c1`, for which the GI50 – broadly, the concentration that inhibits growth by half – in experiment [1] lay in the range of 100 to 500 nM; in experiment [2] it was 10 to 100 nM. For `C=CC(=O)Nc1cccc(Nc2nc(Nc3ccccc3OC)ncc2Cl)c1`, the concentration for 50% growth inhibition (GI50) in experiment [2] fell in the range of 500 to 1000 nM. The same measure, in the same setting: then `C=CC(=O)Nc1cccc(Nc2nc(Nc3cccc(OC)c3OC)ncc2C(F)(F)F)c1`, with 500 to 1000 nM. The molecule `C=CC(=O)Nc1cccc(Oc2nc(Nc3ccc(OC)cc3OC)ncc2Br)c1` came in with a 50% growth inhibitory concentration (GI50) in experiment [1] of 500 to 1000 nM. `C=CC(=O)Nc1cccc(Nc2nc(Nc3ccc(OC)c(OC)c3OC)ncc2C(F)(F)F)c1`: the 50% growth inhibitory concentration (GI50) was 100 to 500 nM in experiment [1] and 10 to 100 nM in experiment [2]. Regarding `C=CC(=O)Nc1cccc(Oc2nc(Nc3ccc(OC)c(OC)c3OC)ncc2Cl)c1`, the 50% growth inhibitory concentration (GI50) in experiment [1] and in experiment [2] was 100 to 500 nM throughout.

With `C=CC(=O)Nc1cccc(Oc2nc(Nc3ccc(OC)cc3OC)ncc2C(F)(F)F)c1`, the GI50 in experiment [1] and in experiment [2] was 100 to 500 nM each time.

In experiment [2], `C=CC(=O)Nc1cccc(Nc2nc(Nc3ccc(OC)cc3OC)ncc2Cl)c1` returned a concentration for 50% growth inhibition (GI50) of 500 to 1000 nM.

For `C=CC(=O)Nc1cccc(Oc2nc(Nc3ccccc3OC)ncc2C(F)(F)F)c1`, in experiment [2], the 50% growth inhibitory concentration (GI50) fell in the range of 100 to 500 nM. As to `C=CC(=O)Nc1cccc(Oc2nc(Nc3ccc(OC)c(OC)c3OC)ncc2C(F)(F)F)c1`, the GI50 in experiment [1] and in experiment [2] was 100 to 500 nM each time. For `C=CC(=O)Nc1cccc(Oc2nc(Nc3cccc(OC)c3OC)ncc2Br)c1`, the GI50 in experiment [1] and in experiment [2] was 500 to 1000 nM throughout.

Molecule `C=CC(=O)Nc1cccc(Nc2nc(Nc3ccc(OC)cc3OC)ncc2Br)c1` yielded a concentration for 50% growth inhibition (GI50) in experiment [2] of 100 to 500 nM. Molecule `C=CC(=O)Nc1cccc(Nc2nc(Nc3ccc(OC)c(OC)c3OC)ncc2Br)c1` yielded a GI50 in experiment [2] of 100 to 500 nM.

Molecule `C=CC(=O)Nc1cccc(Oc2nc(Nc3ccccc3OC)ncc2F)c1` yielded a GI50 in experiment [2] of 100 to 500 nM.
